The record followed here is ChEMBL document CHEMBL3739363, “Discovery of bisindolyl-substituted cycloalkane-anellated indoles as novel class of antibacterial agents against S. aureus and MRSA” (2016).

Molecules are shown by their SMILES. Converted amounts (≈) assume the structure as drawn.

Common to all, as to assay type: functional
Assay [1] concerns Staphylococcus aureus. As to the kind of experiment: Antibacterial activity against clinical isolate methicillin-resistant Staphylococcus aureus by two-fold serial dilution method.
In assay [2] the test system is Staphylococcus aureus. As to the kind of experiment: Antibacterial activity against Staphylococcus aureus ATCC 25923 by two-fold serial dilution method.
Assay [3] has as its system Staphylococcus aureus. The assay can be described thus: Antibacterial activity against methicillin-resistant Staphylococcus aureus ATCC 43300 by two-fold serial dilution method.

For `CC1(C)S[C@@H]2[C@H](NC(=O)[C@@H](N)c3ccccc3)C(=O)N2[C@H]1C(=O)OCOC(=O)[C@@H]1N2C(=O)C[C@H]2S(=O)(=O)C1(C)C`, the MIC – broadly, the lowest concentration found to suppress growth – worked out at 25 µg/mL (≈ 42 µM) with Staphylococcus aureus [1], 0.78 µg/mL (≈ 1.31 µM) against Staphylococcus aureus [2] and 25 µg/mL (≈ 42 µM) in the assay on Staphylococcus aureus [3].
`c1ccc2c([C@@H]3CC[C@@H](c4c[nH]c5ccccc45)c4c3[nH]c3ccccc43)c[nH]c2c1` (relative stereo): the values for the MIC against Staphylococcus aureus [1], in the assay on Staphylococcus aureus [2] and in the assay on Staphylococcus aureus [3] were 6.25 µg/mL (≈ 15.6 µM), 3.12 µg/mL (≈ 7.78 µM) and 3.12 µg/mL (≈ 7.78 µM), respectively.
`c1ccc2c([C@@H]3CCC[C@@H](c4c[nH]c5ccccc45)c4c3[nH]c3ccccc43)c[nH]c2c1` (relative stereo): the MIC in the assay with Staphylococcus aureus [1] amounted to 12.5 µg/mL (≈ 30.1 µM); in the assay with Staphylococcus aureus [2], 3.12 µg/mL (≈ 7.52 µM); against Staphylococcus aureus [3], 6.25 µg/mL (≈ 15 µM).
The corresponding values for `Clc1ccc2c([C@@H]3CC[C@@H](c4c[nH]c5cc(Cl)ccc45)c4c3[nH]c3cc(Cl)ccc43)c[nH]c2c1` (relative stereo) are 12.5 µg/mL (≈ 24.8 µM), 12.5 µg/mL (≈ 24.8 µM) and 12.5 µg/mL (≈ 24.8 µM).
The like results for `CC(=O)n1cc([C@H]2CCC[C@@H](c3c[nH]c4ccccc34)c3[nH]c4ccccc4c32)c2ccccc21` (relative stereo) were, in that order, 12.5 µg/mL (≈ 27.3 µM), 25 µg/mL (≈ 54.6 µM) and 12.5 µg/mL (≈ 27.3 µM).
On to `Clc1ccc2[nH]cc([C@@H]3CC[C@@H](c4c[nH]c5ccc(Cl)cc45)c4c3[nH]c3ccc(Cl)cc43)c2c1` (relative stereo), for which the MIC in the assay on Staphylococcus aureus [1] came out at 12.5 µg/mL (≈ 24.8 µM); in the assay with Staphylococcus aureus [2], 3.12 µg/mL (≈ 6.19 µM); against Staphylococcus aureus [3], 6.25 µg/mL (≈ 12.4 µM).
The like results for `CC(=O)n1cc([C@H]2CC[C@@H](c3cn(C(C)=O)c4ccccc34)c3c2c2ccccc2n3C(C)=O)c2ccccc21` (relative stereo) were, in that order, 50 µg/mL (≈ 94.8 µM), 50 µg/mL (≈ 94.8 µM) and 50 µg/mL (≈ 94.8 µM).
With `Clc1ccc2[nH]cc([C@@H]3CCC[C@@H](c4c[nH]c5ccc(Cl)cc45)c4c3[nH]c3ccc(Cl)cc43)c2c1` (relative stereo), the MIC against Staphylococcus aureus [1] came out at 6.25 µg/mL (≈ 12 µM); against Staphylococcus aureus [2], 3.12 µg/mL (≈ 6.02 µM); in the assay with Staphylococcus aureus [3], 6.25 µg/mL (≈ 12 µM).
In the case of `Clc1ccc2c([C@@H]3CCC[C@@H](c4c[nH]c5cc(Cl)ccc45)c4c3[nH]c3cc(Cl)ccc43)c[nH]c2c1` (relative stereo), the values for the MIC in the assay with Staphylococcus aureus [1], in the assay on Staphylococcus aureus [2] and with Staphylococcus aureus [3] were 12.5 µg/mL (≈ 24.1 µM), 3.12 µg/mL (≈ 6.02 µM) and 6.25 µg/mL (≈ 12 µM), respectively.
The corresponding values for `c1ccc2c([C@@H]3CCCC[C@@H](c4c[nH]c5ccccc45)c4c3[nH]c3ccccc43)c[nH]c2c1` (relative stereo) are 12.5 µg/mL (≈ 29.1 µM), 3.12 µg/mL (≈ 7.27 µM) and 6.25 µg/mL (≈ 14.5 µM).
`c1ccc2c([C@@H]3C[C@@H](c4c[nH]c5ccccc45)c4c3[nH]c3ccccc43)c[nH]c2c1` (relative stereo): the figures for the minimum inhibitory concentration (MIC) in the assay with Staphylococcus aureus [1], in the assay with Staphylococcus aureus [2] and with Staphylococcus aureus [3] were 12.5 µg/mL (≈ 32.3 µM), 50 µg/mL (≈ 129 µM) and 12.5 µg/mL (≈ 32.3 µM), respectively.
With `BrC1[C@@H](c2c[nH]c3ccccc23)c2[nH]c3ccccc3c2[C@@H]1c1c[nH]c2ccccc12` (relative stereo), the MIC was determined as 6.25 µg/mL (≈ 13.4 µM) in the assay on Staphylococcus aureus [1], 3.12 µg/mL (≈ 6.7 µM) against Staphylococcus aureus [2] and 3.12 µg/mL (≈ 6.7 µM) in the assay with Staphylococcus aureus [3].
For the molecule `CC(=O)n1cc([C@@H]2CC[C@H](c3cn(C(C)=O)c4ccccc34)c3c2[nH]c2ccccc32)c2ccccc21` (relative stereo), the MIC against Staphylococcus aureus [1], in the assay on Staphylococcus aureus [2] and with Staphylococcus aureus [3] was 100 µg/mL (≈ 206 µM) each time.
Consider `CC(=O)n1cc([C@H]2CCC[C@@H](c3cn(C(=O)O)c4ccccc34)c3[nH]c4ccccc4c32)c2ccccc21` (relative stereo), for which the MIC turned out to be 50 µg/mL (≈ 99.7 µM) against Staphylococcus aureus [1], 100 µg/mL (≈ 199 µM) with Staphylococcus aureus [2] and 50 µg/mL (≈ 99.7 µM) against Staphylococcus aureus [3].
For `ClC1[C@@H](c2c[nH]c3ccccc23)c2[nH]c3ccccc3c2[C@@H]1c1c[nH]c2ccccc12` (relative stereo), the MIC was 6.25 µg/mL (≈ 14.8 µM) with Staphylococcus aureus [1], 3.12 µg/mL (≈ 7.41 µM) against Staphylococcus aureus [2] and 3.12 µg/mL (≈ 7.41 µM) in the assay with Staphylococcus aureus [3].
In the case of `CC1(C)S[C@@H]2[C@H](NC(=O)[C@H](N)c3ccccc3)C(=O)N2[C@H]1C(=O)O` [AMPICILLIN], the MIC against Staphylococcus aureus [1] stood at 50 µg/mL (≈ 143 µM); against Staphylococcus aureus [2], 1.56 µg/mL (≈ 4.46 µM); with Staphylococcus aureus [3] it was 50 µg/mL (≈ 143 µM).
